The nature of data set [1]: Pharmacokinetic study in rats, intravenous Y101 with or without PRO. The class given is in vivo, Sprague–Dawley (SD) rats. The settings on record: for Tmax / half-life / AUC(0-inf) / AUC(0-t) / Cmax / Vd / clearance / C0: male, Sprague-Dawley, rat, plasma, iv, 25 mg/kg; for Tmax / half-life / AUC(0-inf) / AUC(0-t) / Cmax / Vd / C0: n = 3; for clearance: n = 3, read-out: CLp (plasma clearance) (converted). The procedure:
The effect of PRO on the pharmacokinetics of Y101 was studied in rats. Male rats surgically prepared with indwelling jugular cannula were randomly divided into two groups (n = 3): (1) Y101 alone (25 mg/kg) as a control and (2) Y101 + PRO (25 mg/kg for Y101 and 100 mg/kg for PRO) as an experimental group. The intravenous dose of Y101 was prepared as previously described. Both Y101 and PRO were injected by caudal vein to rats at volume of 5 mL/kg.
(§1) Following administration, serial blood samples were collected through jugular vein pre-dose (0 h) and post-dose at 0.033, 0.083, 0.25, 0.5, 1, 1.5, 2, 3, 4, 6, 9, 12, 24 and 30 h in heparinized Eppendorf tubes. The resulting samples were centrifuged at 13,800× g at 4 °C for 5 min to obtain plasma. All plasma samples were stored at −70 °C until analysis.
(§2) Biological samples were prepared as previously described.
(§3) Non-compartmental analysis with Phenix WinNonlin (version 8.1; Pharsight, Certara Corp, Princeton, NJ) was used to calculate the main pharmacokinetic parameters of ETV, Y101, M8 and M9 for individual rats. The observed values were reported for maximum concentration (Cmax) and time to reach maximum concentration (Tmax), while the area under the plasma concentration–time curve (AUC) was calculated via the default trapezoidal-up, log-trapezoidal-down approach.

Details of data set [2]: method as in PMID 32277364. To be noted: healthy Chinese subjects, oral administration of Y101; cited from earlier work.
Data set [3] in a line: Pharmacokinetic DDI study in rats, oral Y101 and/or ETV. The class given is in vivo, Sprague–Dawley (SD) rats. The settings on record: Sprague-Dawley, rat, plasma, n = 4. As to the method:
Additionally, DDI between Y101 and ETV was investigated by monitoring time-course plasma Y101 in rats with surgery as described above. Animals were randomly placed into three groups (n = 4): (1) Y101 alone (25 mg/kg for intravenous treatment and 60 mg/kg for oral administration); (2) ETV (0.06 mg/kg); and (3) Y101 (25 mg/kg for intravenous treatment and 60 mg/kg for oral administration) + ETV (0.06 mg/kg). ETV was dissolved in saline at concentration of 12 µg/mL. Rats received an oral or intravenous dose of Y101 and/or ETV at volume of 5 mL/kg. The doses used in in vivo pharmacokinetic studies were selected in accordance with therapeutic doses of Y101 and ETV commonly used clinically and in previous studies.
as §1, §2, §3

[4] abbreviates: i.v. Y101 25 mg/kg + PRO 100 mg/kg vs Y101 alone.
[5] abbreviates: i.v. Y101 25 mg/kg + PRO 100 mg/kg.
The mark [6] stands for this setting: oral Y101 60 mg/kg + ETV 0.06 mg/kg.

Broadly, the Tmax is the time at which the peak concentration occurs. A word on the half-life: it is how long it takes for the measured level to halve. The term AUC(0-inf) denotes the area under the concentration-time curve extrapolated to infinity. As a reminder, the AUC(0-t) is exposure summed from dosing to a finite time, without extrapolation to infinity. As a reminder, the Cmax is the maximum level reached in the sampled fluid or tissue. As a reminder, the Vd is the apparent volume that relates the amount in the body to the concentration in plasma or blood. By clearance is commonly meant the volume of plasma or blood freed of the substance per unit of time.

Where two headings read alike, the source gives them in different places.

With `CN(C)CCOc1ccc(CC(NC(=O)c2ccccc2)C(=O)O)cc1` (centres unmarked) [M8], in data set [1] (setting [4]), the “elevation in AUC value on co-administration of PRO” value is 163% and the “increase in Cmax value on co-administration of PRO” value is given as 2.6 fold. Besides, in data set [1] (setting [5]), the Tmax worked out at 0.5 h, the half-life is 3.45 h, the AUC(0-inf) amounted to 21900 ng·h/mL and the AUC(0-t) turned out to be 21900 ng·h/mL. Further, in data set [1] (setting [5]), the Cmax was 10100 ng/mL. Moreover, in data set [1] (i.v. Y101 25 mg/kg alone), the AUC(0-inf) is 8360 ng·h/mL, the AUC(0-t) amounted to 8300 ng·h/mL, the highest level (Cmax) was 3890 ng/mL and the Tmax was determined as 0.667 h. Besides, the half-life in data set [1] (i.v. Y101 25 mg/kg alone) was 4.07 h. For the same compound, the renal excretion in data set [2] is reported as 27.2 % of the dose. Besides, in data set [3] (setting [6]), the AUC(0-inf) was 10400 ng·h/mL, the AUC(0-t) worked out at 10300 ng·h/mL, the Cmax came out at 1980 ng/mL and the Tmax is 1.5 h. The half-life in data set [3] (setting [6]) is 3.64 h. In addition, in data set [3] (oral Y101 60 mg/kg alone), the AUC(0-inf) turned out to be 10200 ng·h/mL, the AUC(0-t) is 10100 ng·h/mL, the peak level (Cmax) was 2030 ng/mL and the Tmax amounted to 2.25 h. In data set [3] (oral Y101 60 mg/kg alone), the half-life is 3.44 h.

For the compound `CN(C)CCOc1ccc(C[C@H](NC(=O)c2ccccc2)C(=O)N[C@H](CO)Cc2ccccc2)cc1.Cl` [Y101, N-[N-benzoyl-O-(2-dimethylaminoethyl)-l-tyrosyl]-l-phenylalaninol hydrochloride], in data set [1] (setting [5]), the Vd turned out to be 12.5 L/kg, the half-life was 0.706 h, the clearance is 207 mL/min/kg and the AUC(0-inf) amounted to 2030 ng·h/mL. For the same compound, in data set [1] (setting [5]), the AUC(0-t) is 2020 ng·h/mL and the C0 was determined as 15800 ng/mL. In data set [1] (i.v. Y101 25 mg/kg alone), the AUC(0-inf) stood at 2860 ng·h/mL, the AUC(0-t) turned out to be 2840 ng·h/mL, the C0 was 16000 ng/mL and the Vd stood at 10.2 L/kg. In data set [1] (i.v. Y101 25 mg/kg alone), the half-life was 0.798 h and the clearance is 149 mL/min/kg. In addition, the renal excretion in data set [2] is 2.98 % of the dose. Besides, in data set [3] (setting [6]), the AUC(0-inf) was 1680 ng·h/mL, the AUC(0-t) is 1620 ng·h/mL, the highest concentration (Cmax) turned out to be 843 ng/mL and the Tmax is 0.313 h. In addition, the half-life in data set [3] (setting [6]) was 1.11 h. Moreover, in data set [3] (oral Y101 60 mg/kg alone), the AUC(0-inf) was found to be 1620 ng·h/mL, the AUC(0-t) is 1570 ng·h/mL, the concentration peaked (Cmax) at 668 ng/mL and the Tmax turned out to be 0.25 h. The half-life in data set [3] (oral Y101 60 mg/kg alone) was 0.998 h.

Consider `C=C1[C@H](CO)[C@@H](O)C[C@@H]1n1cnc2c(=O)[nH]c(N)nc21` [ETV, entecavir], for which, in data set [3] (oral ETV 0.06 mg/kg alone), the AUC(0-inf) was 8.49 ng·h/mL, the AUC(0-t) stood at 8.15 ng·h/mL, the highest level (Cmax) was 5.54 ng/mL and the time to peak (Tmax) is 0.5 h. In data set [3] (oral ETV 0.06 mg/kg alone), this compound had a half-life of 1.1 h. In addition, in data set [3] (setting [6]), the total exposure AUC(0-inf) stood at 7.41 ng·h/mL, the AUC(0-t) came out at 6.76 ng·h/mL, the Cmax came out at 2.94 ng/mL and the Tmax is 0.875 h. Also, the half-life in data set [3] (setting [6]) is 1.45 h.

(Values after paper PMC9967645, “OAT3 Participates in Drug–Drug Interaction between Bentysrepinine and Entecavir through Interactions with M8—A Metabolite of Bentysrepinine—In Rats and Humans In Vitro” (Molecules, 2023).)
